Tests used:
Type in all cases: in vivo
Abutilon theophrasti [1] = assay: Herbicidal action post-emergence (greenhouse pot trial); settings: application rate 20 g/ha, scored visually after about 3 weeks vs untreated controls
In short: (§1)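 Percent herbicidal efficacy, assessed by eye about 3 weeks after spraying, compares treated with untreated plants. Treatment is a post-emergence spray at the one-leaf stage, using a WP or EC preparation plus 0.5% additive in 600 L/ha of water, at 80 g/ha or lower.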

Alopecurus myosuroides = assay: as above; settings: application rate 20 g/ha, scored visually after about 3 weeks vs untreated controls
In short: as §1

Amaranthus retroflexus [2] = assay: as above; settings: application rate 20 g/ha, scored visually after about 3 weeks vs untreated controls
In short: as §1

Echinochloa crus-galli = assay: as above; settings: application rate 20 g/ha, scored visually after about 3 weeks vs untreated controls
In short: as §1

Matricaria inodora [3] = assay: as above; settings: application rate 20 g/ha, scored visually after about 3 weeks vs untreated controls
In short: as §1

Pharbitis purpurea = assay: as above; settings: application rate 20 g/ha
In short: as §1

Polygonum convolvulus = assay: as above; settings: application rate 20 g/ha, scored visually after about 3 weeks vs untreated controls
In short: as §1

Setaria viridis = assay: as above; settings: application rate 20 g/ha, scored visually after about 3 weeks vs untreated controls
In short: as §1

Stellaria media = assay: as above; settings: application rate 20 g/ha, scored visually after about 3 weeks vs untreated controls
In short: as §1

Veronica persica = assay: as above; settings: application rate 20 g/ha
In short: as §1

Viola tricolor [4] = assay: as above; settings: application rate 20 g/ha
In short: as §1

Glycine max = assay: Crop compatibility post-emergence (greenhouse pot trial); settings: application rate 5 g/ha
In short: (§2)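 Greenhouse pot trial: sandy loam, sown seeds, treatment at one-leaf stage 2–3 wk after sowing. Spray: aqueous WP/EC preparation, 0.5% additive, 600 L/ha. Readout: visual % effect after ~3 wk relative to untreated plants.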

Oryza sativa = assay: as above; settings: application rate 20 g/ha
In short: as §2

Triticum aestivum = assay: as above
In short: as §2

Zea mays [5] = assay: as above
In short: as §2

Digitaria sanguinalis = assay: Herbicidal action post-emergence (greenhouse pot trial); settings: application rate 20 g/ha
In short: as §1

Hordeum murinum = assay: as above; settings: application rate 20 g/ha, scored visually after about 3 weeks vs untreated controls
In short: as §1

Abutilon theophrasti [6] = assay: Herbicidal action pre-emergence (greenhouse pot trial); settings: application rate 80 g/ha, scored after about 3 weeks
Source text: (§3) Seeds of mono- and dicotyledonous weeds and crop plants were laid out in plastic or organic plant pots and covered with soil. The compounds of the invention formulated in the form of wettable powders (WP) or emulsion concentrates (EC) were then applied to the surface of the covering soil as an aqueous suspension or emulsion with addition of 0.5% additive at a water application rate equivalent to 600 L/ha. After the treatment, the pots were placed in a greenhouse and kept under good growth conditions for the test plants. After about 3 weeks, the efficacy of the preparations was scored visually as a percentage by comparison with untreated controls. For example, 100% efficacy=plants have died, 0% efficacy=like control plants. Tables B1 to B16 below show the efficacies of selected compounds of the general formula (I) according to tables I.1 to I.60 on various harmful plants and an application rate corresponding to 320 g/ha or lower that were obtained by the aforementioned trial method.

Amaranthus retroflexus [7] = assay: as above; settings: application rate 80 g/ha, scored after about 3 weeks
Source text: as §3

Matricaria inodora [8] = assay: as above; settings: application rate 80 g/ha, scored after about 3 weeks
Source text: as §3

Viola tricolor [9] = assay: as above; settings: application rate 80 g/ha, scored after about 3 weeks
Source text: as §3

Zea mays [10] = assay: Crop compatibility pre-emergence (greenhouse pot trial); settings: application rate 80 g/ha, effect vs untreated controls
Source text: as §3, with “plants.” for “plants. Tables B1 to B16 below show the efficacies of selected compounds of the general formula (I) according to tables I.1 to I.60 on various harmful plants and an application rate corresponding to 320 g/ha or lower that were obtained by the aforementioned trial method.”
Crop compatibilities were also scored correspondingly.
The effects observed are reported here on selected crop plants by comparison with the untreated controls (values in %).

Row | Glycine max (Efficacy in %) (Glycine max) [%] | Oryza sativa (Efficacy in %) (Oryza sativa) [%] | Triticum aestivum (Efficacy in %) (Triticum aestivum; application rate 5 g/ha) [%] | Compound | Abutilon theophrasti (Efficacy in %) (Abutilon theophrasti [1]) [%] | Alopecurus myosuroides (Efficacy in %) (Alopecurus myosuroides) [%] | Amaranthus retroflexus (Efficacy in %) (Amaranthus retroflexus [2]) [%] | Echinochloa crus-galli (Efficacy in %) (Echinochloa crus-galli) [%] | Matricaria inodora (Efficacy in %) (Matricaria inodora [3]) [%] | Pharbitis purpurea (Efficacy in %) (Pharbitis purpurea) [%] | Polygonum convolvulus (Efficacy in %) (Polygonum convolvulus) [%] | Setaria viridis (Efficacy in %) (Setaria viridis) [%] | Stellaria media (Efficacy in %) (Stellaria media) [%] | Veronica persica (Efficacy in %) (Veronica persica) [%] | Viola tricolor (Efficacy in %) (Viola tricolor [4]) [%] | Digitaria sanguinalis (Efficacy in %) (Digitaria sanguinalis) [%] | Hordeum murinum (Efficacy in %) (Hordeum murinum) [%] | further results
1 | 0 | 0 | 0 | CCC(Sc1cc(-n2c(=O)c(C)c(C(F)(F)F)n(C)c2=O)c(F)cc1Cl)C(=O)OCC1CCCCO1 (stereo not shown) [I.12-91] | 100 | 80 | 100 | 100 | 80 | 100 | 80 | 80 | 100 | 100 | 100 | – | – | Zea mays (Efficacy in %) (Zea mays [5]; application rate 5 g/ha): 0%
2 | 20 | – | – | CC(C)CC(Sc1cc(-n2c(=O)cc(C(F)(F)F)n(C)c2=O)c(F)cc1Cl)C(=O)NCC1CCCO1 (stereo not shown) [I.4-221] | 100 | – | 100 | 80 | 100 | 100 | 100 | 100 | 80 | 100 | 100 | 100 | 80 | –
3 | 20 | 0 | 10 | CC(Sc1cc(-n2c(=O)cc(C(F)(F)F)n(C)c2=O)c(F)cc1Cl)C(=O)NCC1CCOC1(C)C (stereo not shown) [I.1-227] | 100 | – | 100 | – | 100 | 100 | 100 | – | – | 100 | 80 | – | – | Zea mays (Efficacy in %) (Zea mays [5]; application rate 20 g/ha): 20%; Abutilon theophrasti (Efficacy in %) (Abutilon theophrasti [6]): 100%; Amaranthus retroflexus (Efficacy in %) (Amaranthus retroflexus [7]): 100%; Matricaria inodora (Efficacy in %) (Matricaria inodora [8]): 90%; Viola tricolor (Efficacy in %) (Viola tricolor [9]): 80%; Zea mays (Efficacy in %) (Zea mays [10]): 0%
4 | – | – | – | CC(C)C(Sc1cc(-n2c(=O)cc(C(F)(F)F)n(C)c2=O)c(F)cc1Cl)C(=O)OCC1CCCO1 (stereo not shown) [I.6-71] | 100 | 80 | 100 | 90 | 100 | 100 | 100 | 100 | 100 | 100 | 100 | 100 | 80 | Triticum aestivum (Efficacy in %) (Triticum aestivum; application rate 20 g/ha): 20%
